The source made the active and inactive calls. The rule behind the calls is not given here.
How the values were obtained:
NCI-H1975 [1] = assay: Induction of cell cycle arrest in human NCI-H1975 cells assessed as accumulation at G0/G1 phase at 1 uM incubated for 48 hrs by propidium iodide staining based flow cytometry (reference value: 59.18%); assay type: functional
NCI-H1975 [2] = assay: Induction of apoptosis in human NCI-H1975 cells assessed as viable cells level at 0.5 uM incubated for 48 hrs by Annexin-V/propidium iodide staining based biparametric cytofluorometric assay (reference value: 93.9%); assay type: functional
NCI-H1975 [3] = assay: Induction of apoptosis in human NCI-H1975 cells assessed as necrosis cells level at 1 uM incubated for 48 hrs by Annexin-V/propidium iodide staining based biparametric cytofluorometric assay (reference value: 2.46%); assay type: functional
NCI-H1975 [4] = assay: Induction of cell cycle arrest in human NCI-H1975 cells assessed as accumulation at S phase at 0.25 uM incubated for 48 hrs by propidium iodide staining based flow cytometry (reference value: 37.13%); assay type: functional
PC-9 = assay: Anti-proliferative activity against human PC-9 cells assessed as reduction in cell proliferation incubated for 72 hrs by MTT assay; assay type: functional, cell-based; settings: PC-9, 72 h
A549 = assay: Anti-proliferative activity against human A549 cells assessed as reduction in cell proliferation incubated for 72 hrs by MTT assay; assay type: functional, cell-based; settings: A549, 72 h
NCI-H1975 [5] = assay: Induction of apoptosis in human NCI-H1975 cells assessed as early apoptosis cells level at 1 uM incubated for 48 hrs by Annexin-V/propidium iodide staining based biparametric cytofluorometric assay (reference value: 2.26%); assay type: functional
NCI-H1975 [6] = assay: Induction of cell cycle arrest in human NCI-H1975 cells assessed as accumulation at G2/M phase at 0.25 uM incubated for 48 hrs by propidium iodide staining based flow cytometry (reference value: 3.68%); assay type: functional
[7] = target: Epidermal growth factor receptor (Homo sapiens, UniProt P00533, L858R/T790M); assay: Inhibition of EGFR L858R/T790M mutant (unknown origin) incubated for 35 mins by HTRF KinEASE-TK assay
NCI-H1975 [8] = assay: Induction of apoptosis in human NCI-H1975 cells assessed as early apoptosis cells level at 0.5 uM incubated for 48 hrs by Annexin-V/propidium iodide staining based biparametric cytofluorometric assay (reference value: 2.26%); assay type: functional
NCI-H1975 [9] = assay: Induction of cell cycle arrest in human NCI-H1975 cells assessed as accumulation at G0/G1 phase at 0.5 uM incubated for 48 hrs by propidium iodide staining based flow cytometry (reference value: 59.18%); assay type: functional
NCI-H1975 [10] = assay: Induction of apoptosis in human NCI-H1975 cells assessed as necrosis cells level at 0.5 uM incubated for 48 hrs by Annexin-V/propidium iodide staining based biparametric cytofluorometric assay (reference value: 2.46%); assay type: functional
[11] = tested on: Protein cereblon/Epidermal growth factor receptor (Homo sapiens), P00533+Q96SW2 [L858R,T790M]; assay: Protac activity at CRBN/EGFR L858R/T790M mutant in human NCI-H1975 cells assessed as L858R/T790M mutant degradation at 0.3 uM incubated up to 36 hrs by Western blot analysis; assay type: cell-based; settings: TDE = time-dependent effect
[12] = tested on: Protein cereblon/Epidermal growth factor receptor (Homo sapiens), P00533+Q96SW2 [L858R,T790M]; assay: Protac activity at CRBN/EGFR L858R/T790M mutant in human NCI-H1975 cells assessed as L858R/T790M mutant degradation at 3 uM incubated for 48 hrs by Western blot analysis; assay type: cell-based
[13] = target: Protein cereblon/Epidermal growth factor receptor (Homo sapiens, UniProt P00533+Q96SW2, T790M/L858R); assay: (§1) Protac activity at CRBN/EGFR L858R/T790M mutant in human NCI-H1975 cells assessed as L858R/T790M mutant degradation incubated for 48 hrs by Western blot analysis; assay type: cell-based
[14] = tested on: Protein cereblon/Epidermal growth factor receptor (Homo sapiens), P00533+Q96SW2 [L858R,T790M]; assay: as §1; assay type: cell-based; settings: DDE = dose-dependent effect
NCI-H1975 [15] = assay: Induction of cell cycle arrest in human NCI-H1975 cells assessed as accumulation at G2/M phase at 1 uM incubated for 48 hrs by propidium iodide staining based flow cytometry (reference value: 3.68%); assay type: functional
Homo sapiens = species on record: Homo sapiens; assay: Selectivity index, ratio of IC50 for wild type EGFR (unknown origin) to IC50 for Protein cereblon/Epidermal growth factor receptor L858R/T790M mutant
NCI-H1975 [16] = assay: Induction of apoptosis in human NCI-H1975 cells incubated for 48 hrs by Annexin-V/propidium iodide staining based biparametric cytofluorometric assay; assay type: functional, cell-based; settings: DDE = dose-dependent effect
NCI-H1975 [17] = assay: Induction of cell cycle arrest in human NCI-H1975 cells assessed as accumulation at S phase at 0.5 uM incubated for 48 hrs by propidium iodide staining based flow cytometry (reference value: 37.13%); assay type: functional
NCI-H1975 [18] = assay: Induction of apoptosis in human NCI-H1975 cells assessed as early apoptosis cells level at 0.25 uM incubated for 48 hrs by Annexin-V/propidium iodide staining based biparametric cytofluorometric assay (reference value: 2.26%); assay type: functional
NCI-H1975 [19] = assay: Induction of cell cycle arrest in human NCI-H1975 cells assessed as accumulation at S phase at 1 uM incubated for 48 hrs by propidium iodide staining based flow cytometry (reference value: 37.13%); assay type: functional
NCI-H1975 [20] = assay: Induction of apoptosis in human NCI-H1975 cells assessed as late apoptosis cells level at 1 uM incubated for 48 hrs by Annexin-V/propidium iodide staining based biparametric cytofluorometric assay (reference value: 2.46%); assay type: functional
NCI-H1975 [21] = assay: Induction of apoptosis in human NCI-H1975 cells assessed as viable cells level at 0.25 uM incubated for 48 hrs by Annexin-V/propidium iodide staining based biparametric cytofluorometric assay (reference value: 93.9%); assay type: functional
NCI-H1975 [22] = assay: Anti-proliferative activity against human NCI-H1975 cells assessed as reduction in cell proliferation incubated for 72 hrs by MTT assay; assay type: functional, cell-based; settings: NCI-H1975, 72 h
[23] = tested on: Protein cereblon/Epidermal growth factor receptor (Homo sapiens), P00533+Q96SW2 [L858R,T790M]; assay: Protac activity at CRBN/EGFR L858R/T790M mutant in human NCI-H1975 cells assessed as L858R/T790M mutant degradation incubated for 48 hrs by Western blot analysis relative to untreated control; assay type: cell-based
NCI-H1975 [24] = assay: Induction of apoptosis in human NCI-H1975 cells assessed as viable cells level at 1 uM incubated for 48 hrs by Annexin-V/propidium iodide staining based biparametric cytofluorometric assay (reference value: 93.9%); assay type: functional
NCI-H1975 [25] = assay: Induction of cell cycle arrest in human NCI-H1975 cells assessed as accumulation at G0/G1 phase at 0.25 uM incubated for 48 hrs by propidium iodide staining based flow cytometry (reference value: 59.18%); assay type: functional
NCI-H1975 [26] = assay: Induction of apoptosis in human NCI-H1975 cells assessed as late apoptosis cells level at 0.5 uM incubated for 48 hrs by Annexin-V/propidium iodide staining based biparametric cytofluorometric assay (reference value: 2.46%); assay type: functional
NCI-H1975 [27] = assay: Induction of apoptosis in human NCI-H1975 cells assessed as late apoptosis cells level at 0.25 uM incubated for 48 hrs by Annexin-V/propidium iodide staining based biparametric cytofluorometric assay (reference value: 2.46%); assay type: functional
[28] = target: Epidermal growth factor receptor (Homo sapiens, UniProt P00533); assay: Inhibition of wild type EGFR (unknown origin) incubated for 10 mins by HTRF KinEASE-TK assay
NCI-H1975 [29] = assay: Induction of cell cycle arrest in human NCI-H1975 cells assessed as accumulation at G2/M phase at 0.5 uM incubated for 48 hrs by propidium iodide staining based flow cytometry (reference value: 3.68%); assay type: functional

`C=CC(=O)Nc1cccc(Nc2nc(Nc3ccc(N4CCN(CC(=O)NCCNc5cccc6c5C(=O)N(C5CCC(=O)NC5=O)C6=O)CC4)cc3OC)ncc2C(F)(F)F)c1` (configuration not stated) was tested, and the Activity (NCI-H1975 [1]) was 77.8%, the Activity (NCI-H1975 [2]) was 73.3% and the Activity (NCI-H1975 [3]) was 4.71%. For the same compound, the Activity (NCI-H1975 [4]) was 23.89%, the IC50 (PC-9) was 750 nM and the IC50 (A549) was greater than 100 µM. It also gave an Activity (NCI-H1975 [5]) of 6.63%, an Activity (NCI-H1975 [6]) of 4.01% and an IC50 [7] of 43.1 nM. For the same compound, the Activity (NCI-H1975 [8]) was 6.16%, the Activity (NCI-H1975 [9]) was 73.71% and the Activity (NCI-H1975 [10]) was 2.22%. For the same compound, the Activity [11] was “Tde”, the Activity [12] was “Active” and the DC50 [13] was 356 nM. For the same compound, the Activity [14] was “Dde”, the Activity (NCI-H1975 [15]) was 4.8% and the Ratio IC50 (Homo sapiens) was 19. The Activity (NCI-H1975 [16]) was “Dde”, the Activity (NCI-H1975 [17]) was 22.57% and the Activity (NCI-H1975 [18]) was 2.78%. For the same compound, the Activity (NCI-H1975 [19]) was 17.39%, the Activity (NCI-H1975 [20]) was 39.9% and the Activity (NCI-H1975 [21]) was 89.7%. It also gave an IC50 (NCI-H1975 [22]) of 240 nM, an Emax [23] of 83% and an Activity (NCI-H1975 [24]) of 58%. It also gave an Activity (NCI-H1975 [25]) of 72.1%, an Activity (NCI-H1975 [26]) of 18.3% and an Activity (NCI-H1975 [27]) of 6.07%. It also gave an IC50 [28] of 839 nM and an Activity (NCI-H1975 [29]) of 3.72%.
